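These data come from cells grown in 96-well plates and exposed to compound for 48 hours at five concentrations. The concentration for full growth arrest is given as TGI.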
Assays:
Assay in all cases: NCI anticancer screen, dose series, 48 h
SK-MEL-2 melanoma = test system: SK-MEL-2 melanoma
IGROV1 ovarian = test system: IGROV1 ovarian
U251 CNS = test system: U251 CNS
SF-268 CNS = test system: SF-268 CNS
A549 NSCLC = test system: A549 NSCLC
HOP-62 NSCLC = test system: HOP-62 NSCLC
A498 renal = test system: A498 renal
PC-3 prostate = test system: PC-3 prostate
MCF7 breast = test system: MCF7 breast
UACC-257 melanoma = test system: UACC-257 melanoma
SN12C renal = test system: SN12C renal
SNB-75 CNS = test system: SNB-75 CNS
NCI-H226 lung = test system: NCI-H226 lung
KM12 colon = test system: KM12 colon
M14 melanoma = test system: M14 melanoma
DU-145 prostate = test system: DU-145 prostate
786-0 renal = test system: 786-0 renal
NCI-H522 lung = test system: NCI-H522 lung
NCI/ADR-RES ovarian = test system: NCI/ADR-RES ovarian
K-562 leukemia = test system: K-562 leukemia
SK-MEL-28 melanoma = test system: SK-MEL-28 melanoma
SNB-19 CNS = test system: SNB-19 CNS
MOLT-4 leukemia = test system: MOLT-4 leukemia
HOP-92 NSCLC = test system: HOP-92 NSCLC
BT-549 breast = test system: BT-549 breast
T-47D breast = test system: T-47D breast
MDA-MB-435 = test system: MDA-MB-435
HCT-116 colon = test system: HCT-116 colon
OVCAR-3 ovarian = test system: OVCAR-3 ovarian
HCT-15 colon = test system: HCT-15 colon
RPMI-8226 leukemia = test system: RPMI-8226 leukemia
UO-31 renal = test system: UO-31 renal
SK-OV-3 ovarian = test system: SK-OV-3 ovarian
UACC-62 melanoma = test system: UACC-62 melanoma
EKVX NSCLC = test system: EKVX NSCLC
OVCAR-8 ovarian = test system: OVCAR-8 ovarian
HCC-2998 colon = test system: HCC-2998 colon
CAKI-1 renal = test system: CAKI-1 renal
NCI-H460 lung = test system: NCI-H460 lung
TK-10 renal = test system: TK-10 renal
MALME-3M melanoma = test system: MALME-3M melanoma
SK-MEL-5 melanoma = test system: SK-MEL-5 melanoma
CCRF-CEM leukemia = test system: CCRF-CEM leukemia
LOX IMVI melanoma = test system: LOX IMVI melanoma
COLO 205 colon = test system: COLO 205 colon
SW-620 colon = test system: SW-620 colon
RXF 393 renal = test system: RXF 393 renal
OVCAR-4 ovarian = test system: OVCAR-4 ovarian
MDA-MB-231 breast = test system: MDA-MB-231 breast
NCI-H23 lung = test system: NCI-H23 lung
OVCAR-5 ovarian = test system: OVCAR-5 ovarian
HL-60(TB) leukemia = test system: HL-60(TB) leukemia
SF-295 CNS = test system: SF-295 CNS
MDA-N = test system: MDA-N
HT29 colon = test system: HT29 colon
ACHN renal = test system: ACHN renal

Measured: TGI

CC(=O)OC1COC(n2nc(N)nc2C)C(OC(C)=O)C1OC(C)=O (stereo unspecified)
> 100 µM: SK-MEL-2 melanoma | IGROV1 ovarian | U251 CNS | SF-268 CNS | A549 NSCLC | HOP-62 NSCLC | A498 renal | PC-3 prostate | MCF7 breast | UACC-257 melanoma | SN12C renal | SNB-75 CNS | NCI-H226 lung | KM12 colon | M14 melanoma | DU-145 prostate | 786-0 renal | NCI-H522 lung | NCI/ADR-RES ovarian | K-562 leukemia | SK-MEL-28 melanoma | SNB-19 CNS | MOLT-4 leukemia | HOP-92 NSCLC | BT-549 breast | T-47D breast | MDA-MB-435 | HCT-116 colon | OVCAR-3 ovarian | HCT-15 colon | RPMI-8226 leukemia | UO-31 renal | SK-OV-3 ovarian | UACC-62 melanoma | EKVX NSCLC | OVCAR-8 ovarian | HCC-2998 colon | CAKI-1 renal | NCI-H460 lung | TK-10 renal | MALME-3M melanoma | SK-MEL-5 melanoma | CCRF-CEM leukemia | LOX IMVI melanoma | COLO 205 colon | SW-620 colon | RXF 393 renal | OVCAR-4 ovarian | MDA-MB-231 breast | NCI-H23 lung | OVCAR-5 ovarian | HL-60(TB) leukemia | SF-295 CNS | MDA-N | HT29 colon | ACHN renal
